Test system: HMOX1 in Normal Human Lung Fibroblasts (NHLF)
Assay: HMOX1 Protein Expression (immunostaining, fold induction or % positive cells over DMSO)
[1] = Homo sapiens, Fibroblast, read-out: Fold Induction of HMOX

Fold Induction of HMOX (HPP-A 0.019 uM, Bardoxolone Methyl 0 uM): 0.97 fold
Fold Induction of HMOX (HPP-A 0.019 uM, Bardoxolone Methyl 0.0024 uM): 3.24 fold
Fold Induction of HMOX (HPP-A 0.019 uM, Bardoxolone Methyl 0.0048 uM): 2.88 fold
Fold Induction of HMOX (HPP-A 0.019 uM, Bardoxolone Methyl 0.0097 uM): 7.14 fold
Fold Induction of HMOX (HPP-A 0.019 uM, Bardoxolone Methyl 0.039 uM): 15.87 fold
Fold Induction of HMOX (HPP-A 0.019 uM, Bardoxolone Methyl 0.078 uM): 22.27 fold
Fold Induction of HMOX (HPP-A 0.019 uM, Bardoxolone Methyl 0.156 uM): 22.90 fold
Fold Induction of HMOX (HPP-A 0.019 uM, Bardoxolone Methyl 0.312 uM): 17.20 fold
Fold Induction of HMOX (HPP-A 0.039 uM, Bardoxolone Methyl 0 uM): 1.09 fold
Fold Induction of HMOX (HPP-A 0.039 uM, Bardoxolone Methyl 0.0024 uM): 2.32 fold
Fold Induction of HMOX (HPP-A 0.039 uM, Bardoxolone Methyl 0.0048 uM): 3.04 fold
Fold Induction of HMOX (HPP-A 0.039 uM, Bardoxolone Methyl 0.0097 uM): 5.31 fold
Fold Induction of HMOX (HPP-A 0.039 uM, Bardoxolone Methyl 0.019 uM): 8.57 fold
Fold Induction of HMOX (HPP-A 0.039 uM, Bardoxolone Methyl 0.078 uM): 18.69 fold
Fold Induction of HMOX (HPP-A 0.039 uM, Bardoxolone Methyl 0.156 uM): 17.24 fold
Fold Induction of HMOX (HPP-A 0.039 uM, Bardoxolone Methyl 0.312 uM): 17.44 fold
Fold Induction of HMOX (HPP-A 0.078 uM, Bardoxolone Methyl 0 uM): 1.92 fold
Fold Induction of HMOX (HPP-A 0.078 uM, Bardoxolone Methyl 0.0024 uM): 4.25 fold
Fold Induction of HMOX (HPP-A 0.078 uM, Bardoxolone Methyl 0.0048 uM): 4.72 fold
Fold Induction of HMOX (HPP-A 0.078 uM, Bardoxolone Methyl 0.0097 uM): 8.43 fold
Fold Induction of HMOX (HPP-A 0.078 uM, Bardoxolone Methyl 0.019 uM): 13.21 fold
Fold Induction of HMOX (HPP-A 0.078 uM, Bardoxolone Methyl 0.039 uM): 17.81 fold
Fold Induction of HMOX (HPP-A 0.078 uM, Bardoxolone Methyl 0.156 uM): 17.88 fold
Fold Induction of HMOX (HPP-A 0.078 uM, Bardoxolone Methyl 0.312 uM): 15.33 fold
Fold Induction of HMOX (HPP-A 0.156 uM, Bardoxolone Methyl 0 uM): 3.46 fold
Fold Induction of HMOX (HPP-A 0.156 uM, Bardoxolone Methyl 0.0024 uM): 7.32 fold
Fold Induction of HMOX (HPP-A 0.156 uM, Bardoxolone Methyl 0.0048 uM): 8.04 fold
Fold Induction of HMOX (HPP-A 0.156 uM, Bardoxolone Methyl 0.0097 uM): 12.05 fold
Fold Induction of HMOX (HPP-A 0.156 uM, Bardoxolone Methyl 0.019 uM): 15.95 fold
Fold Induction of HMOX (HPP-A 0.156 uM, Bardoxolone Methyl 0.039 uM): 17.59 fold
Fold Induction of HMOX (HPP-A 0.156 uM, Bardoxolone Methyl 0.078 uM): 18.44 fold
Fold Induction of HMOX (HPP-A 0.156 uM, Bardoxolone Methyl 0.312 uM): 15.98 fold
Fold Induction of HMOX (HPP-A 0.312 uM, Bardoxolone Methyl 0 uM): 9.82 fold
Fold Induction of HMOX (HPP-A 0.312 uM, Bardoxolone Methyl 0.0024 uM): 11.67 fold
Fold Induction of HMOX (HPP-A 0.312 uM, Bardoxolone Methyl 0.0048 uM): 13.59 fold
Fold Induction of HMOX (HPP-A 0.312 uM, Bardoxolone Methyl 0.0097 uM): 16.45 fold
Fold Induction of HMOX (HPP-A 0.312 uM, Bardoxolone Methyl 0.019 uM): 17.74 fold
Fold Induction of HMOX (HPP-A 0.312 uM, Bardoxolone Methyl 0.039 uM): 19.61 fold
Fold Induction of HMOX (HPP-A 0.312 uM, Bardoxolone Methyl 0.078 uM): 21.13 fold
Fold Induction of HMOX (HPP-A 0.312 uM, Bardoxolone Methyl 0.156 uM): 19.21 fold
Fold Induction of HMOX (HPP-A 0.625 uM, Bardoxolone Methyl 0 uM): 15.00 fold
Fold Induction of HMOX (HPP-A 0.625 uM, Bardoxolone Methyl 0.0024 uM): 15.70 fold
Fold Induction of HMOX (HPP-A 0.625 uM, Bardoxolone Methyl 0.0048 uM): 17.10 fold
Fold Induction of HMOX (HPP-A 0.625 uM, Bardoxolone Methyl 0.0097 uM): 17.18 fold
Fold Induction of HMOX (HPP-A 0.625 uM, Bardoxolone Methyl 0.019 uM): 16.84 fold
Fold Induction of HMOX (HPP-A 0.625 uM, Bardoxolone Methyl 0.039 uM): 17.24 fold
Fold Induction of HMOX (HPP-A 0.625 uM, Bardoxolone Methyl 0.078 uM): 18.60 fold
Fold Induction of HMOX (HPP-A 0.625 uM, Bardoxolone Methyl 0.156 uM): 18.68 fold
Fold Induction of HMOX (HPP-A 0.625 uM, Bardoxolone Methyl 0.312 uM): 12.69 fold
Fold Induction of HMOX (HPP-A 1.25 uM, Bardoxolone Methyl 0 uM): 16.17 fold
Fold Induction of HMOX (HPP-A 1.25 uM, Bardoxolone Methyl 0.0024 uM): 16.12 fold
Fold Induction of HMOX (HPP-A 1.25 uM, Bardoxolone Methyl 0.0048 uM): 17.26 fold
Fold Induction of HMOX (HPP-A 1.25 uM, Bardoxolone Methyl 0.0097 uM): 16.49 fold
Fold Induction of HMOX (HPP-A 1.25 uM, Bardoxolone Methyl 0.019 uM): 15.93 fold
Fold Induction of HMOX (HPP-A 1.25 uM, Bardoxolone Methyl 0.039 uM): 15.63 fold
Fold Induction of HMOX (HPP-A 1.25 uM, Bardoxolone Methyl 0.078 uM): 15.15 fold
Fold Induction of HMOX (HPP-A 1.25 uM, Bardoxolone Methyl 0.156 uM): 16.65 fold
Fold Induction of HMOX (HPP-A 1.25 uM, Bardoxolone Methyl 0.312 uM): 10.53 fold
Fold Induction of HMOX (HPP-A 2.5 uM, Bardoxolone Methyl 0 uM): 17.48 fold
Fold Induction of HMOX (HPP-A 2.5 uM, Bardoxolone Methyl 0.0024 uM): 18.81 fold
Fold Induction of HMOX (HPP-A 2.5 uM, Bardoxolone Methyl 0.0048 uM): 19.48 fold
Fold Induction of HMOX (HPP-A 2.5 uM, Bardoxolone Methyl 0.0097 uM): 19.42 fold
Fold Induction of HMOX (HPP-A 2.5 uM, Bardoxolone Methyl 0.019 uM): 17.04 fold
Fold Induction of HMOX (HPP-A 2.5 uM, Bardoxolone Methyl 0.039 uM): 14.71 fold
Fold Induction of HMOX (HPP-A 2.5 uM, Bardoxolone Methyl 0.078 uM): 14.33 fold
Fold Induction of HMOX (HPP-A 2.5 uM, Bardoxolone Methyl 0.156 uM): 12.49 fold
Fold Induction of HMOX (HPP-A 5 uM, Bardoxolone Methyl 0 uM): 17.72 fold
maximum HMOX1 fold induction (HPP-A alone, concentrations greater than or equal to 2500 nM): 18 fold
SMILES: CNC(=O)c1ccc2c(c1)nc(Nc1nc3ccc(OC(F)(F)F)cc3s1)n2C [HPP-A, 1-Methyl-2-(6-trifluoromethoxy-benzothiazol-2-ylamino)-1H-benzoimidazole-5-carboxylic acid methyl amide]
increase HMOX1 (FIG. 1 bar A) (156 nM HPP-A alone): 3.5 fold
combined effect on HMOX induction (FIG. 1 bar C) (156 nM HPP-A combined with 9.7 nM CDDO-Me): greater than additive
fold induction at 0.019 µM [1]: 10
fold induction at 0.039 µM [1]: 14.7
fold induction at 0.078 µM [1]: 19.5
fold induction at 0.156 µM [1]: 18.3
fold induction at 0.312 µM [1]: 17.4

From patent US10898475B2, “Bach1 inhibitors in combination with Nrf2 activators and pharmaceutical compositions thereof” (vTv Therapeutics LLC, priority 2014, dated 2021)
